Source: PMC8498988, “Scaffold Hybridization Strategy Leads to the Discovery of Dopamine D3 Receptor-Selective or Multitarget Bitopic Ligands Potentially Useful for Central Nervous System Disorders” (ACS Chemical Neuroscience, 2021)
Where a name gives a salt, the structure may show the parent alone. Marks after values point to notes of the source that are not given here.

What was measured:
D3R = D3R (Homo sapiens, UniProt P35462); experiment: Radioligand competition binding at human D3R ([3H]N-methylspiperone, HEK293 membranes); set-up: expressed in transfected cells; host or cells: HEK293; settings: for Ki: HEK 293 cells expressing hD3R, read-out: Ki ± SEM, D3R; for D2/D3: ratio of Ki values D2R/D3R; for D4/D3: ratio of Ki values D4R/D3R
Chain of D3R (P35462 whole entry): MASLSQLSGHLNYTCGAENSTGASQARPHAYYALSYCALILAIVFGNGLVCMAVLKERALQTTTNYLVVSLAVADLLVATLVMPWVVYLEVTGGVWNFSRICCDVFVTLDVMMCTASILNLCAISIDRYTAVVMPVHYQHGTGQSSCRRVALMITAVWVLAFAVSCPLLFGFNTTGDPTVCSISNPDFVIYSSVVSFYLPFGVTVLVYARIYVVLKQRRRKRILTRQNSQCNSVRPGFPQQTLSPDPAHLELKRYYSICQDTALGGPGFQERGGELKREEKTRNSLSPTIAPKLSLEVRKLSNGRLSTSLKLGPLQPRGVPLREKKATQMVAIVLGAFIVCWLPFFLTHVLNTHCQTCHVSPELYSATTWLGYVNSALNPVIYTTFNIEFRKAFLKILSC
Experimental: (§1) The novel hybrid derivatives 3–11 were tested at hD2R, hD3R, or hD4R stably expressed in HEK293 cells by competition binding assays, using [^3H]N-methylspiperone as the radioligand, to evaluate their D2-like affinity and subtype selectivity, following the previously reported procedures.[41],[45],[46]
(§2) Binding at dopamine D2-like receptors was determined using previously described methods.[41],[45],[46] Membranes were prepared from HEK293 cells stably expressing human D2, D3, or D4, grown in a 50:50 mix of Dulbecco’s minimal essential medium (DMEM) and Ham’s F12 culture media, supplemented with 20 mM HEPES, 2 mM L-glutamine, 0.1 mM nonessential amino acids, 1× antibiotic/antimycotic, 10% heat-inactivated fetal bovine serum, and 200 μg/mL hygromycin (Life Technologies, Grand Island, NY) and kept in an incubator at 37 °C and 5% CO2. Upon reaching 80–90% confluency, the cells were harvested using premixed Earle’s Balanced Salt Solution (EBSS) with 5 μM EDTA (Life Technologies) and centrifuged at 3000 rpm for 10 min at 21 °C. The supernatant was removed, and the pellet was resuspended in 10 mL hypotonic lysis buffer (5 mM MgCl2, 5 mM Tris, pH 7.4 at 4 °C) and centrifuged at 20,000 rpm for 30 min at 4 °C. The pellet was then resuspended in fresh EBSS buffer made from 8.7 g/L Earle’s Balanced Salts without phenol red (US Biological, Salem, MA), 2.2 g/L sodium bicarbonate, pH to 7.4. A Bradford protein assay (Bio-Rad, Hercules, CA) was used to determine the protein concentration, and membranes were diluted to 500 μg/mL and stored at −80 °C for later use. Radioligand competition binding experiments were conducted using thawed membranes. Test compounds were freshly dissolved in 30% DMSO and 70% H2O to a stock concentration of 100 μM. To assist the solubilization of free-base compounds, 10 μL of glacial acetic acid was added along with DMSO. Each test compound was then diluted into 13 half-log serial dilutions using 30% DMSO vehicle; the final test concentrations ranged from 10 μM to 10 pM. The previously frozen membranes were diluted in fresh EBSS to a 100 μg/mL (for D2 or D3) or 200 μg/mL (D4) stock for binding. Radioligand competition experiments were conducted in glass tubes containing 300 μL of fresh EBSS buffer, 50 μL of diluted test compound, 100 μL of membranes (10 μg of total protein for D2 or D3 and 20 μg of total protein for D4), and 50 μL of [^3H]N-methylspiperone (0.4 nM final concentration; PerkinElmer). Nonspecific binding was determined using 10 μM butaclamol (Sigma-Aldrich, St. Louis, MO), and total binding was determined with the 30% DMSO vehicle. All compound dilutions were tested in triplicate and the reaction was incubated for 1 h at room temperature. The reaction was terminated by filtration through Whatman GF/B filters, presoaked for 1 h in 0.5% polyethylenimine, using a Brandel R48 filtering manifold (Brandel Instruments, Gaithersburg, MD). The filters were washed three times with 3 mL of ice-cold EBSS buffer and transferred to scintillation vials. CytoScint liquid scintillation cocktail (3 mL, MP Biomedicals, Solon, OH) was added, and vials were counted using a PerkinElmer Tri-Carb 2910 TR liquid scintillation counter (Waltham, MA).

D4R = molecular target: T1, D4R (Homo sapiens, UniProt P21917); experiment: Radioligand competition binding at human D4R ([3H]N-methylspiperone, HEK293 membranes); set-up: expressed in transfected cells; host or cells: HEK293; settings: for inhibition percentage of the radioligand binding, D4R / inhibition at 10 µM: test compound concentration of 10 μM; for inhibition percentage of the radioligand binding, D4R: 10 µM; for inhibition at 10 µM: read-out: inhibition percentage of the radioligand binding, D4R; for Ki: HEK 293 cells expressing hD4R, read-out: Ki ± SEM, D4R
T1 sequence (P21917 1-419): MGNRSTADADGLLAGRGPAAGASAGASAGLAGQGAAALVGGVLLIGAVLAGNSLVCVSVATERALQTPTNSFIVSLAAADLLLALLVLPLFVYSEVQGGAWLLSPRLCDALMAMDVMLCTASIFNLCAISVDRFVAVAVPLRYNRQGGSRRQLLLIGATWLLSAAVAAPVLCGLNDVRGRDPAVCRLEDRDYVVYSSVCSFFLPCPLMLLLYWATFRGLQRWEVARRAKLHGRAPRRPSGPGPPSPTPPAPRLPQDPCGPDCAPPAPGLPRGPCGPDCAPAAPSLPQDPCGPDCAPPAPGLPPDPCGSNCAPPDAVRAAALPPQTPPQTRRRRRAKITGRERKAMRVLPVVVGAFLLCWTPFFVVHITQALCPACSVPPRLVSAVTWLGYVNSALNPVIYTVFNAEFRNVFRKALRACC
Experimental: as §1, §2

D2R = D2R (Homo sapiens, UniProt P14416); experiment: Radioligand competition binding at human D2R ([3H]N-methylspiperone, HEK293 membranes); set-up: expressed in transfected cells; host or cells: HEK293; settings: for inhibition percentage of the radioligand binding, D2R / inhibition at 10 µM: test compound concentration of 10 μM; for inhibition percentage of the radioligand binding, D2R: 10 µM; for inhibition at 10 µM: read-out: inhibition percentage of the radioligand binding, D2R; for Ki: HEK 293 cells expressing hD2R, read-out: Ki ± SEM, D2R
Chain of D2R (P14416 whole entry): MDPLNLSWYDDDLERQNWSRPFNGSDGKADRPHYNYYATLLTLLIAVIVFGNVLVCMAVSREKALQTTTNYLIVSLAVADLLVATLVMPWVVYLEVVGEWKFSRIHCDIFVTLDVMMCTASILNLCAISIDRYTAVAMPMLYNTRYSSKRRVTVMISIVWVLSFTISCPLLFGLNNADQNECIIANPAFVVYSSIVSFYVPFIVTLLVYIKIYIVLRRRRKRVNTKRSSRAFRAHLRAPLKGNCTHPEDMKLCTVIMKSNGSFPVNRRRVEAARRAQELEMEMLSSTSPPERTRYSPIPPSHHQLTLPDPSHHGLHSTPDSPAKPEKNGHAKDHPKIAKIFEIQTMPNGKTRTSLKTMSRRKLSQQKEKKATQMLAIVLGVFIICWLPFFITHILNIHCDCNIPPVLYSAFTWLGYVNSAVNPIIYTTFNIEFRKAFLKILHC
Experimental: as §1, §2

O=C(NCCC(O)CN1CCN(c2cccc(Cl)c2Cl)CC1)C1COCC(c2ccccc2)(c2ccccc2)O1 (stereo not drawn) [4b, N-(4-(4-(2,3-Dichlorophenyl)piperazin-1-yl)-3-hydroxybutyl)-6,6-diphenyl-1,4-dioxane-2-carboxamide]
Ki (D3R; [3H]N-methylspiperone): 77.1 ± 25.5 nM
inhibition percentage of the radioligand binding, D4R (D4R): 54.4% ^c
inhibition percentage of the radioligand binding, D2R (D2R): 41% ^c

O=C(NCCC(F)CN1CCN(c2cccc(Cl)c2Cl)CC1)C1COCC(c2ccccc2)(c2ccccc2)O1 (stereo not drawn) [compound 5, N-(4-(4-(2,3-Dichlorophenyl)piperazin-1-yl)-3-fluorobutyl)-6,6-diphenyl-1,4-dioxane-2-carboxamide]
Ki (D3R; [3H]N-methylspiperone): 716 ± 178 nM
inhibition at 10 µM (D4R): 19.1%
inhibition at 10 µM (D2R): 21.2%

O=C(NCCC(O)CN1CCN(c2cccc(Cl)c2Cl)CC1)C1COCC(c2ccccc2)(c2ccccc2)O1 (stereo not drawn) [4a, N-(4-(4-(2,3-Dichlorophenyl)piperazin-1-yl)-3-hydroxybutyl)-6,6-diphenyl-1,4-dioxane-2-carboxamide]
Ki (D3R; [3H]N-methylspiperone): 164 ± 52 nM
inhibition at 10 µM (D4R): 39.2%
inhibition at 10 µM (D2R): 39.5%

O=C(NCCCCN1CCN(c2cccc(Cl)c2Cl)CC1)C1COC(c2ccccc2)(c2ccccc2)CO1 (stereo not drawn) (as salt: oxalate) [compound 6, N-(4-(4-(2,3-Dichlorophenyl)piperazin-1-yl)butyl)-5,5-diphenyl-1,4-dioxane-2-carboxamide]
melting point: 94 to 95 °C

O=C(NCCC(F)CN1CCN(c2cccc(Cl)c2Cl)CC1)C1COC(c2ccccc2)(c2ccccc2)CO1 (stereo not drawn) [compound 8, N-(4-(4-(2,3-Dichlorophenyl)piperazin-1-yl)-3-fluorobutyl)-5,5-diphenyl-1,4-dioxane-2-carboxamide]
Ki (D3R; [3H]N-methylspiperone): 295 ± 100 nM
D2/D3 (D3R): 4
inhibition at 10 µM (D4R): 43.6%
Ki (D2R): 1200 ± 210 nM

O=C(NCCC(O)CN1CCN(c2cccc(Cl)c2Cl)CC1)C1COc2ccccc2O1 (stereo not drawn) [10a, N-(4-(4-(2,3-Dichlorophenyl)piperazin-1-yl)-3-hydroxybutyl)-2,3-dihydrobenzo[b][1,4]dioxine-2-carboxamide]
Ki (D3R; [3H]N-methylspiperone): 44.1 ± 8.2 nM
D2/D3 (D3R): 25
D4/D3 (D3R): 6
Ki (D4R): 282 ± 76 nM
Ki (D2R): 1100 ± 125 nM

O=C(NCCCCN1CCN(c2cccc(Cl)c2Cl)CC1)C1COc2ccccc2O1 (stereo not drawn) (as salt: oxalate) [compound 9, N-(4-(4-(2,3-Dichlorophenyl)piperazin-1-yl)butyl)-2,3-dihydrobenzo[b][1,4]dioxine-2-carboxamide]
melting point: 167 to 168 °C

O=C(NCCC(F)CN1CCN(c2cccc(Cl)c2Cl)CC1)C1COCC(c2ccccc2)(c2ccccc2)O1 (stereo not drawn) (as salt: oxalate) [compound 5, N-(4-(4-(2,3-Dichlorophenyl)piperazin-1-yl)-3-fluorobutyl)-6,6-diphenyl-1,4-dioxane-2-carboxamide]
melting point: 100 to 101 °C

O=C(NCCC(O)CN1CCN(c2cccc(Cl)c2Cl)CC1)C1COc2ccccc2O1 (stereo not drawn) [10b, N-(4-(4-(2,3-Dichlorophenyl)piperazin-1-yl)-3-hydroxybutyl)-2,3-dihydrobenzo[b][1,4]dioxine-2-carboxamide]
Ki (D3R; [3H]N-methylspiperone): 23.4 ± 2.4 nM
D4/D3 (D3R): 10
Ki (D4R): 244 ± 54 nM
Ki (D2R): 783 ± 19 nM

O=C(NCCC(F)CN1CCN(c2cccc(Cl)c2Cl)CC1)C1COC(c2ccccc2)(c2ccccc2)CO1 (stereo not drawn) (as salt: oxalate) [compound 8, N-(4-(4-(2,3-Dichlorophenyl)piperazin-1-yl)-3-fluorobutyl)-5,5-diphenyl-1,4-dioxane-2-carboxamide]
melting point: 126 to 127 °C

O=C(NCCC(F)CN1CCN(c2cccc(Cl)c2Cl)CC1)C1COc2ccccc2O1 (stereo not drawn) [11b, N-(4-(4-(2,3-Dichlorophenyl)piperazin-1-yl)-3-fluorobutyl)-2,3-dihydrobenzo[b][1,4]dioxine-2-carboxamide]
inhibition percentage of the radioligand binding, D3R (D3R; test compound concentration of 10 μM, [3H]N-methylspiperone, 10 µM): 65.4% ^c
inhibition percentage of the radioligand binding, D4R (D4R): 26.6% ^c
inhibition percentage of the radioligand binding, D2R (D2R): 8.7% ^c

O=C(NCCC(O)CN1CCN(c2cccc(Cl)c2Cl)CC1)C1COC(c2ccccc2)(c2ccccc2)CO1 (stereo not drawn) (as salt: oxalate) [compound 7, N-(4-(4-(2,3-Dichlorophenyl)piperazin-1-yl)-3-hydroxybutyl)-5,5-diphenyl-1,4-dioxane-2 Carboxamide]
melting point: 132 to 133 °C

O=C(NCCC(O)CN1CCN(c2cccc(Cl)c2Cl)CC1)C1COC(c2ccccc2)(c2ccccc2)CO1 (stereo not drawn) [compound 7, N-(4-(4-(2,3-Dichlorophenyl)piperazin-1-yl)-3-hydroxybutyl)-5,5-diphenyl-1,4-dioxane-2 Carboxamide]
Ki (D3R; [3H]N-methylspiperone): 23.4 ± 3.1 nM
D2/D3 (D3R): 23
D4/D3 (D3R): 17
Ki (D4R): 390 ± 46 nM
Ki (D2R): 526 ± 28.2 nM

O=C(NCCC(F)CN1CCN(c2cccc(Cl)c2Cl)CC1)C1COc2ccccc2O1 (stereo not drawn) [11a, N-(4-(4-(2,3-Dichlorophenyl)piperazin-1-yl)-3-fluorobutyl)-2,3-dihydrobenzo[b][1,4]dioxine-2-carboxamide]
inhibition at 10 µM (D3R; test compound concentration of 10 μM, [3H]N-methylspiperone, read-out: inhibition percentage of the radioligand binding, D3R): 54.8%
inhibition at 10 µM (D4R): 29.4%
inhibition at 10 µM (D2R): 10.6%

O=C(NCCCCN1CCN(c2cccc(Cl)c2Cl)CC1)C1COCC(c2ccccc2)(c2ccccc2)O1 (stereo not drawn) (as salt: oxalate) [compound 3, N-(4-(4-(2,3-Dichlorophenyl)piperazin-1-yl)butyl)-6,6-diphenyl-1,4-dioxane-2-carboxamide]
melting point: 107 to 108 °C

O=C(NCCC(O)CN1CCN(c2cccc(Cl)c2Cl)CC1)C1COc2ccccc2O1 (single isomer, unassigned) (as salt: oxalate) [10a, N-(4-(4-(2,3-Dichlorophenyl)piperazin-1-yl)-3-hydroxybutyl)-2,3-dihydrobenzo[b][1,4]dioxine-2-carboxamide]
melting point: 88 to 89 °C

O=C(NCCC(F)CN1CCN(c2cccc(Cl)c2Cl)CC1)C1COc2ccccc2O1 (stereo not drawn) (as salt: oxalate) [11a, N-(4-(4-(2,3-Dichlorophenyl)piperazin-1-yl)-3-fluorobutyl)-2,3-dihydrobenzo[b][1,4]dioxine-2-carboxamide]
melting point: 200 to 201 °C

O=C(NCCC(O)CN1CCN(c2cccc(Cl)c2Cl)CC1)C1COCC(c2ccccc2)(c2ccccc2)O1 (single isomer, unassigned) (as salt: oxalate) [4a, N-(4-(4-(2,3-Dichlorophenyl)piperazin-1-yl)-3-hydroxybutyl)-6,6-diphenyl-1,4-dioxane-2-carboxamide]
melting point: 146 to 147 °C
